# Results from article PMC10717410, “TMC4 is a novel chloride channel involved in high-concentration salt taste sensation” (The Journal of Physiological Sciences : JPS, 2021).
# Where a name gives a salt, the structure may show the parent alone.
# How the values were obtained:
# Format in all cases: cell-based
# mouse TMC4 (mTMC4) [1] = target: T1, mouse TMC4 (mTMC4) (Mus musculus, UniProt Q7TQ65); assay: whole-cell patch clamp, transfected HEK293T; conditions: pH 7.4 bath, pH 7.2 pipette, about 25 °C
# T1 construct: coding region from circumvallate papillae cDNA in pIRES2-AcGFP1 with IRES and GFP removed; transiently expressed in HEK293T with separate EGFP plasmid
# T1 sequence (Q7TQ65 1-694): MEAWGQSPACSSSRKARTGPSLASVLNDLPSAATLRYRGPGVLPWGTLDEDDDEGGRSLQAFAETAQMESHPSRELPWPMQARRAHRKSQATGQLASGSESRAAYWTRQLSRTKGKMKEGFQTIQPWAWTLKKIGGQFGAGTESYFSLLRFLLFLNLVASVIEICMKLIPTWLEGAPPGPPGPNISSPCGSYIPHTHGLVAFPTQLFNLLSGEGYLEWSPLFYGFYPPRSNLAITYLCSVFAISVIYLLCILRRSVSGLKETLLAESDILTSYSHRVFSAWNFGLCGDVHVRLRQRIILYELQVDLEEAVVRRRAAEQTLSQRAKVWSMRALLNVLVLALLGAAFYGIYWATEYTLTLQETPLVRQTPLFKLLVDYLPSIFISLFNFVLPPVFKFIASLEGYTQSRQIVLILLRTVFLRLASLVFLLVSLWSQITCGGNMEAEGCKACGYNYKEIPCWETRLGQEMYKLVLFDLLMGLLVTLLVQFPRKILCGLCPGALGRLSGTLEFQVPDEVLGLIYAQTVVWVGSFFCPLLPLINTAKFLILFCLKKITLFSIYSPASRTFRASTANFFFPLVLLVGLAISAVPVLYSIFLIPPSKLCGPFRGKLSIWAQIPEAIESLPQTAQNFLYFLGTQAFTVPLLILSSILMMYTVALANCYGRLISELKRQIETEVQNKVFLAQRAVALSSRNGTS
# human TMC4 (hTMC4) = target: T2, human TMC4 (hTMC4) (Homo sapiens, UniProt Q7Z404); assay: whole-cell patch clamp, step pulses, transfected HEK293T; conditions: pH 7.4 bath, pH 7.2 pipette, about 25 °C; channel blocker
# T2 construct: coding region of purchased cDNA (Dharmacon) in pIRES2-AcGFP1 with IRES and GFP removed; transiently expressed in HEK293T
# T2 sequence (Q7Z404 1-712): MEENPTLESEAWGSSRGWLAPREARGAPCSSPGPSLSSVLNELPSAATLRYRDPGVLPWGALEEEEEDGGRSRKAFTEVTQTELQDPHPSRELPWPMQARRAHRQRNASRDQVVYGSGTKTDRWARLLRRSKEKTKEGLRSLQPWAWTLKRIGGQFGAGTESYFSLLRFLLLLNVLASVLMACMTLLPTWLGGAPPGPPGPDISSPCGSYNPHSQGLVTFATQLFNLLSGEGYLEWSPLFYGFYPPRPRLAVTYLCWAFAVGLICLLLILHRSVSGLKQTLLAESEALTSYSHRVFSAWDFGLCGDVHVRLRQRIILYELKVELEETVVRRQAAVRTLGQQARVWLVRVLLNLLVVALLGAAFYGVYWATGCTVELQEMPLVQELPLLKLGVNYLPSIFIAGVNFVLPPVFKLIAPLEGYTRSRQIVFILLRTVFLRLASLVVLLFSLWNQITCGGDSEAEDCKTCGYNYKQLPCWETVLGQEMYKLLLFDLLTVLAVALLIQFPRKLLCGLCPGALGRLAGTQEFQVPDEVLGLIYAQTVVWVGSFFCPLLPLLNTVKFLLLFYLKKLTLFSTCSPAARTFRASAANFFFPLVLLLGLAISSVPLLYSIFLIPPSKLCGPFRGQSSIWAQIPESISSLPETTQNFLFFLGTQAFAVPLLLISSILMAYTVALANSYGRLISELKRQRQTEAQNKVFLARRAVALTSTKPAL
# mouse TMC4 (mTMC4) [2] = target: T1, mouse TMC4 (mTMC4); assay: as above; conditions: NMDG-Cl pipette, pH 7.4 bath, pH 7.2 pipette, about 25 °C, channel blocker
# mouse TMC4 (mTMC4) [3] = target: T1, mouse TMC4 (mTMC4); assay: whole-cell patch clamp, bath chloride fully replaced by gluconate; conditions: permeating anion; NMDG-Cl pipette; pH 7.4 bath, about 25 °C
smiles,measurement,setting,value
CC(C)(C)C1CCc2c(sc(NC(=O)c3ccco3)c2C(=O)O)C1 (centres unmarked) [CaCC(inh)-A01],Iblocker/Icontrol at + 60 mV,mouse TMC4 (mTMC4) [1],mTMC4-mediated currents were inhibited by CaCC(inh)-A01
CNCCC(Oc1ccc(C(F)(F)F)cc1)c1ccccc1 (centres unmarked) [Fluoxetine hydrochloride],Iblocker/Icontrol at + 60 mV,mouse TMC4 (mTMC4) [1]; 100 μM compound,Fluoxetine hydrochloride and tannic acid also inhibited mTMC4-mediated currents
"O=C(O)c1cc([N+](=O)[O-])ccc1NCCCc1ccccc1 [NPPB, 5-nitro-2-(3-phenylpropylamino) benzoic acid]",current reduction,human TMC4 (hTMC4),hTMC4) also functions as a Cl^− channel with a similar voltage dependency and is inhibited by NPPB
same,Iblocker/Icontrol at + 60 mV,mouse TMC4 (mTMC4) [2],mTMC4-mediated currents were strongly inhibited by the NPPB
O=C(O)[C@H](O)[C@@H](O)[C@H](O)[C@H](O)CO [gluconate],"whole-cell patch clamp, bath chloride fully replaced by gluconate",mouse TMC4 (mTMC4) [3],outward currents did not disappear even when the bath solution was completely substituted with Na-gluconate
